In patent publication US5733913A, “6-Aryl pyrido[2,3-d] pyrimidines and naphthyridines for inhibiting protein tyrosine kinase mediated cellular proliferation” (priority 1995, dated 1998):
pIC50: −log10 of the molar value. Read-outs that look alike come from different tables or passages of the source.

Legend:
Type in all cases: biochemical
C-src kinase = molecular target: T1, C-src kinase (Homo sapiens, UniProt P12931); assay: C-src kinase assay; details: for inhibition at 50 µM: read-out: Inhibition of Protein Tyrosine Kinases, C-src, % Inhibition
T1 construct: made in house; host or cells: baculovirus-infected insect cells
T1 sequence (P12931 whole entry): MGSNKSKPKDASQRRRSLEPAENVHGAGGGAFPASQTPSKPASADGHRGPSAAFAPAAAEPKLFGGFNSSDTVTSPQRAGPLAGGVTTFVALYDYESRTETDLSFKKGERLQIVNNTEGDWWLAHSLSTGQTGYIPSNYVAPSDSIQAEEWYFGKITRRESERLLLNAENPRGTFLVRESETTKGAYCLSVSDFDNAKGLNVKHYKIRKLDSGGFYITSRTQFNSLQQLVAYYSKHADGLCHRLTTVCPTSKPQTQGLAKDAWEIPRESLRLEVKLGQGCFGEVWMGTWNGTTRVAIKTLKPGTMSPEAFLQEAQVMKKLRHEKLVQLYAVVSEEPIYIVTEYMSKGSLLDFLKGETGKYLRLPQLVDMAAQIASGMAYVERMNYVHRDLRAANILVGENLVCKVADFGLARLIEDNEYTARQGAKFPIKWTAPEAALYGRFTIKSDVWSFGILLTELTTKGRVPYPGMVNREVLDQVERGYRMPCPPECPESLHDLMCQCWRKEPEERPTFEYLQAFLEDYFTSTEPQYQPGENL
Experimental: V-src and C-src Kinase Assays
V-src or C-src kinase is purified from baculovirus infected insect cell lysates using an antipeptide monoclonal antibody directed against the N-terminal 2-17 amino acids. The antibody, covalently linked to 0.65-μm latex beads, is added to a suspension of insect cell lysis buffer comprised of 150 mM NaCl, 50 mM Tris pH 7.5, 1 mM DTT, 1% NP-40, 2 mM EGTA, 1 mM sodium vanadate, 1 mM PMSF, 1 μg/mL each of leupeptin, pepstatin, and aprotinin. […] At the end of the lysate incubation, the beads are rinsed 3 times in lysis buffer, resuspended in lysis buffer containing 10% glycerol, and frozen. These latex beads are thawed, rinsed three times in assay buffer which is comprised of 40 mM tris pH 7.5, 5 mM MgCl2, and suspended in the same buffer. In a Millipore 96-well plate with a 0.65 μm polyvinylidine membrane bottom are added the reaction components: 10-μL v-src or c-src beads, 10 μL of 2.5 mg/mL poly GluTyr substrate, 5 μM ATP containing 0.2 μCi labeled ^32 P-ATP, 5μL DMSO containing inhibitors or as a solvent control, and buffer to make the final volume 125 μL. The reaction is started at room temperature by addition of the ATP and quenched 10 minutes later by the addition of 125 μL of 30% TCA, 0.1M sodium pyrophosphate for 5 minutes on ice. The plate is then filtered and the wells washed with two 250-μL aliquots of 15% TCA, 0.1M pyrophosphate. The filters are punched, counted in a liquid scintillation counter, and the data examined for inhibitory activity in comparison to a known inhibitor such as erbstatin. The method is described more fully in J. Med. Chem., 37:598-609 (1994).

[1] = molecular target: T2, human FGF-1 (flg) receptor tyrosine kinase (Homo sapiens, UniProt P11362); assay: FGF receptor tyrosine kinase assay; details: for pIC50: read-out: Inhibition of Protein Tyrosine Kinases, FGF, IC50; for inhibition at 50 µM: read-out: Inhibition of Protein Tyrosine Kinases, FGF, % Inhibition
T2 construct: a fragment of DNA that codes for the intracellular tyrosine kinase domain; made in house; host or cells: Sf9 insect cells (baculovirus), cell lysate
T2 sequence (P11362 478-767 limits assumed): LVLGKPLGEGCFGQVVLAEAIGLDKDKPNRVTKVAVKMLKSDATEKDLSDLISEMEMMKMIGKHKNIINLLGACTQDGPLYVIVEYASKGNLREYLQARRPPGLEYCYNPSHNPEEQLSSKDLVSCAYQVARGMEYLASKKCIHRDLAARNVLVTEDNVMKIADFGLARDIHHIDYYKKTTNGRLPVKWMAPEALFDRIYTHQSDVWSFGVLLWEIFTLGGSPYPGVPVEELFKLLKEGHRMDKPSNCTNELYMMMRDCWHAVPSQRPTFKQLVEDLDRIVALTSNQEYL
Excerpt: (§1) PDGF and FGF Receptor Tyrosine Kinase Assays
(§2) Full length cDNAs for the mouse PDGF-β and human FGF-1 (flg) receptor tyrosine kinases were obtained from J. Escobedo and prepared as described in J. Biol. Chem., 262:1482-1487 (1991), and PCR primers were designed to amplify a fragment of DNA that codes for the intracellular tyrosine kinase domain. The fragment was melded into a baculovirus vector, cotransfected with AcMNPV DNA, and the recombinant virus isolated. SF9 insect cells were infected with the virus to overexpress the protein, and the cell lysate was used for the assay. […] Briefly, to each well was added 82.5 μL of incubation buffer containing 25 mM Hepes (pH 7.0), 150 mM NaCl, 0.1% Triton X-100, 0.2 mM PMSF, 0.2 mM Na3 VO4, 10 mM MnCl2, and 750 μg/mL of Poly (4:1) glutamate-tyrosine followed by 2.5 μL of inhibitor and 5 μL of enzyme lysate (7.5 μg/μL FGF-TK or 6.0 μg/μL PDGF-TK) to initiate the reaction. Following a 10 minute incubation at 25° C., 10 μL of γ^32 P-ATP (0.4 μCi plus 50 μM ATP) was added to each well and samples were incubated for an additional 10 minutes at 25° C. The reaction was terminated by the addition of 100 μL of 30% trichloroacetic acid (TCA) containing 20 mM sodium pyrophosphate and precipitation of material onto glass fiber filter mats (Wallac). […] Nonspecific activity was defined as radioactivity retained on the filters following incubation of samples with buffer alone (no enzyme). Specific enzymatic activity was defined as total activity (enzyme plus buffer) minus nonspecific activity.

[2] = molecular target: T3, mouse PDGF-β receptor tyrosine kinase (Mus musculus, UniProt P05622); assay: PDGF receptor tyrosine kinase assay; details: for pIC50: read-out: Inhibition of Protein Tyrosine Kinases, PDGF, IC50; for inhibition at 50 µM: read-out: Inhibition of Protein Tyrosine Kinases, PDGF, % Inhibition
T3 construct: a fragment of DNA that codes for the intracellular tyrosine kinase domain; made in house; host or cells: Sf9 insect cells (baculovirus), cell lysate
T3 sequence (P05622 599-961 limits assumed): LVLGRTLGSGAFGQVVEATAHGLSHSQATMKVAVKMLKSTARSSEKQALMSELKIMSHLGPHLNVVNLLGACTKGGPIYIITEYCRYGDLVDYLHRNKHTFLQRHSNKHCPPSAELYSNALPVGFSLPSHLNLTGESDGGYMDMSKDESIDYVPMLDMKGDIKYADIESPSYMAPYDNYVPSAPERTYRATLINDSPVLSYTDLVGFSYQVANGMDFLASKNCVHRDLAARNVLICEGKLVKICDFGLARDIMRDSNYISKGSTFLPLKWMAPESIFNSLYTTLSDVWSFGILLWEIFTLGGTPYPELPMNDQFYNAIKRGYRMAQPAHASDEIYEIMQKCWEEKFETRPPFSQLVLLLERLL
Excerpt: as §1, §2

[3] = read-out: Inhibition of Protein Tyrosine Kinases, C-src, IC50

| Structure (SMILES) | pIC50 (C-src kinase; [3]) | pIC50 [1] | pIC50 [2] | also measured |
| --- | --- | --- | --- | --- |
| CCCNC(=O)Nc1nc2nc(N)ncc2cc1-c1c(Cl)cccc1Cl [Example 26, 1-[2-Amino-6-(2,6-dichlorophenyl)-pyrido[2,3-d]pyrimidin-7-yl]-3-propyl-ure] | 7.40 | 6.94 | 5.97 |  |
| CN(C)CC(C)(C)CNc1ncc2cc(-c3c(Cl)cccc3Cl)c(NC(=O)NC(C)(C)C)nc2n1 [Example 30, 1-tert-Butyl-3-[6-(2,6-dichlorophenyl)-2-[3-dimethylamino-2,2-dimethyl-propylamino)-pyrido[2,3-d]pyrimidin-7-yl]-urea] |  | 6.58 | 5.75 | inhibition at 50 µM (C-src kinase): 46.8% |
| CC1CCCCN1CCCNc1ncc2cc(-c3c(Cl)cccc3Cl)c(NC(=O)NC(C)(C)C)nc2n1 (stereo not drawn) [Example 32, 1-tert-Butyl-3-{6-(2,6-dichlorophenyl)-2-[3-(2-methyl-piperidin-1-yl)-propylamino]-pyrido[2,3-d]pyrimidin-7-yl}-urea] | 5.30 |  | 6.38 |  |
| CN1CCN(CCCCNc2ncc3cc(-c4c(Cl)cccc4Cl)c(NC(=O)NC(C)(C)C)nc3n2)CC1 [Example 34, 1-tert-Butyl-3-{6-(2,6-dichlorophenyl)-2-[4-(4-methyl-piperazin-1-yl)-butylamino]-pyrido[2,3-d]pyrimidin-7-yl}-urea] | 7.96 |  | 6.46 |  |
| CN1CCN(CCCNc2ncc3cc(-c4c(Cl)cccc4Cl)c(NC4=NCCCO4)nc3n2)CC1 [Example 35, 6-(2,6-Dichlorophenyl)-N^7-(5,6-dihydro-4H-[1,3]oxazin-2-yl)-N^2-[3-(4-methyl-piperazin-1-yl)-propyl]-pyrido[2,3-d]pyrimidine-2,7-diamine] |  |  | 5.68 | inhibition at 50 µM [1]: 97.9% |
| CN1CCN(CCCNc2ncc3cc(-c4c(Cl)cccc4Cl)c(N)nc3n2)CC1 [Example 36, N^2-[3-(4-methyl-piperazin-1-yl)-propyl]-6-(2,6-dichlorophenyl)-pyrido[2,3-d]pyrimidine-2,7-diamine] | 6.74 | 6.28 | 4.64 |  |
| CN1CCN(CCCNc2ncc3cc(-c4c(Cl)cccc4Cl)c(NC(=O)NC4CCCCC4)nc3n2)CC1 [Example 37, 1-Cyclohexyl-3-{6-(2,6-dichlorophenyl)-2-[3-(4-methyl-piperazin-1-yl)-propylamino]-pyrido[2,3-d]pyrimidin-7-yl}-urea] |  |  |  | inhibition at 50 µM (C-src kinase): 106% |
| CC(C)NC(=O)Nc1nc2nc(NCCCN3CCN(C)CC3)ncc2cc1-c1c(Cl)cccc1Cl [Example 38] | 7.72 | 7.33 | 6.44 |  |
| CN1CCN(CCCNc2ncc3cc(-c4c(Cl)cccc4Cl)c(NC(=O)NCc4ccccc4)nc3n2)CC1 [Example 39, 1-Benzyl-3-{6-(2,6-dichlorophenyl)-2-[3-(4-methyl-piperazin-1-yl)-propylamino]-pyrido[2,3-d]pyrimidin-7-yl}-urea] | 7.68 |  |  |  |
| C=CCNC(=O)Nc1nc2nc(NCCCN3CCN(C)CC3)ncc2cc1-c1c(Cl)cccc1Cl [Example 40, 1-Allyl-3-{6-(2,6-dichlorophenyl)-2-[3-(4-methyl-piperazin-1-yl)-propylamino]-pyrido[2,3-d]pyrimidin-7-yl}-urea] |  | 7.24 | 6.16 |  |
| COc1ccc(NC(=O)Nc2nc3nc(NCCCN4CCN(C)CC4)ncc3cc2-c2c(Cl)cccc2Cl)cc1 [Example 41, 1-{6-(2,6-Dichlorophenyl)-2-[3-(4-methyl-piperazin-1-yl)-propylamino]-pyrido[2,3-d]pyrimidin-7-yl}-3-(4-methoxy-phenyl)-urea] | 7.07 |  |  |  |
| COc1cccc(NC(=O)Nc2nc3nc(NCCCN4CCN(C)CC4)ncc3cc2-c2c(Cl)cccc2Cl)c1 [Example 42, 1-{6-(2,6-Dichlorophenyl)-2-[3-(4-methyl-piperazin-1-yl)-propylamino]-pyrido[2,3-d]pyrimidin-7-yl}-3-(3-methoxy-phenyl)-urea] | 7.49 |  | 6.20 |  |
| CN1CCN(CCCNc2ncc3cc(-c4c(Cl)cccc4Cl)c(NC(=O)Nc4cccc5ccccc45)nc3n2)CC1 [Example 50, 1-{6-(2,6-Dichlorophenyl)-2-[3-(4-methyl-piperazin-1-yl)-propylamino]-pyrido[2,3-d]pyrimidin-7-yl}-3-naphthalen-1-yl-urea] |  | 6.52 | 5.59 |  |
| Nc1ncc2cc(-c3c(Br)cccc3Br)c(N)nc2n1 [Example 60, 6-(2,6-Dibromo-phenyl)-pyrido[2,3-d]pyrimidine-2,7-diamine] |  | 4.89 |  | pIC50 (C-src kinase): 5.80 |
| CN(C)C=Nc1ncc2cc(-c3c(Cl)cccc3Cl)c(N=CN(C)C)nc2n1 [Example 80, N'-[6-(2,6-Dichlorophenyl)-7-[(dimethylamino)methylene-amino]-pyrido[2,3-d]pyrimidin-2-yl]-N,N-dimethylformamidine] |  | 4.99 |  | inhibition at 50 µM [2]: 22.9% |
| Cc1cc(C)cc(-c2cc3cnc(N)nc3nc2N)c1 [Example 94, 6-(3,5-Dimethyl-phenyl)-pyrido[2,3-d]pyrimidine-2,7-diamine] |  | 4.75 |  | inhibition at 50 µM [2]: 11.5% |
| Cc1cc(C)c(-c2cc3cnc(N)nc3nc2N)c(C)c1 [Example 96, 6-(2,4,6-Trimethyl-phenyl)-pyrido[2,3-d]pyrimidine-2,7-diamine] |  | 5.42 | 4.56 |  |
| Cc1cc(C)c(C)c(-c2cc3cnc(N)nc3nc2NC(=O)NC(C)(C)C)c1C [Example 99, 1-[2-Amino-6-(2,3,5,6-tetramethyl-phenyl)-pyrido[2,3-d]pyrimidin-7-yl]-3-tert-butyl-urea] |  |  |  | inhibition at 50 µM (C-src kinase): 17.1% |
| Nc1ncc2cc(-c3c(Cl)cccc3Br)c(N)nc2n1 [Example 104, 6-(2-Bromo-6-chloro-phenyl)-pyrido[2,3-d]pyrimidine-2,7-diamine] |  | 5.27 | 4.44 |  |
| Nc1ncc2cc(-c3ccncc3)c(N)nc2n1 [Example 109, 6-Pyridin-4-yl-pyrido[2,3-d]pyrimidine-2,7-diamine] |  |  |  | inhibition at 50 µM [1]: 10.3%; inhibition at 50 µM [2]: 23.6% |
| CN1CCN(CCCNc2ncc3cc(-c4c(Cl)cccc4Cl)c(NC(=S)NC(C)(C)C)nc3n2)CC1 [Example 118, 1-tert-Butyl-3-{6-(2,6-dichlorophenyl)-2-[3-(4-methyl-piperazin-1-yl)-propylamino]-pyrido[2,3-d]pyrimidin-7-yl}-thiourea] |  | 6.90 | 5.72 |  |
| CCN(CC)C(=O)Nc1nc2nc(NCCCN3CCN(C)CC3)ncc2cc1-c1c(Cl)cccc1Cl [Example 119, 3-{6-(2,6-Dichlorophenyl)-2-[3-(4-methyl-piperazin-1-yl)-propylamino]-pyrido[2,3-d]pyrimidin-7-yl}-1,1-diethyl-urea] |  | 5.11 | 4.20 |  |
| Cc1cc(C)c(C)c(-c2cc3cnc(NCCCN4CCN(C)CC4)nc3nc2NC(=O)NC(C)(C)C)c1C [Example 121, 1-tert-Butyl-3-{2-[3-(4-methyl-piperazin-1-yl)-propylamino]-6-(2,3,5,6-tetramethyl-phenyl)-pyrido-[2,3-d]pyrimidin-7-yl}-urea] |  | 6.85 |  | inhibition at 50 µM [2]: 21.8% |
| CCN(CC)CCCCNc1ncc2cc(-c3c(Cl)cccc3Cl)c(NC(=S)NCCCN3CCOCC3)nc2n1 [Example 122, 1-[6-(2,6-Dichlorophenyl)-2-(4-diethylamino-butylamino)-pyrido[2,3-d]pyrimidin-7-yl]-3-(3-morpholin-4-yl-propyl)-thiourea] |  | 6.77 | 5.84 |  |
